Experimental data from ChEMBL document CHEMBL5729683, “Diazaindole derivative and use thereof as CHK1 inhibitor” (2023).

Columns and labels:
[1] = molecular target: Serine/threonine-protein kinase Chk2 (Homo sapiens, UniProt O96017); test: Activity Test of Compounds in the CHK1 Coupled Reaction System: The compounds of the present disclosure used in the experiments were self-prepared, and their chemical names and structural formulas were shown in the preparation embodiments of each compound. […] The test was carried out on the KinaseProfiler™ protein kinase activity detection platform of Eurofins, and the experimental results were provided by the company. […] A mixture solution of Mg2′ and ATP (adenosine triphosphate) was added to initiate the reaction and the reaction solution was incubated at room temperature for 40 min. 0.5% […] was added to terminate the reaction. […] The value was read with scintillation counting method after drying.
[2] = molecular target: T1, Serine/threonine-protein kinase Chk1 (Homo sapiens, UniProt O14757); test: Activity Test of Compounds in the CHK1 Coupled Reaction System: The compounds of the present disclosure used in the experiments were self-prepared, and their chemical names and structural formulas were shown in the preparation embodiments of each compound. The determination mixture containing embodiment compounds of the present disclosure and Chk1 and Chk2 kinases were incubated in a microtiter plate, and CHK1 inhibitor activity of compounds were tested by monitoring the phosphorylation of Chk1 and Chk2 kinases on a synthetic peptide substrate with a specific amino acid sequence ([…], SEQ ID NO: 1). The test was carried out on the KinaseProfiler™ protein kinase activity detection platform of Eurofins, and the experimental results were provided by the company. The procedure was as follows: Chk1 and Chk2 kinases were diluted with 20 mM MOPS (morpholinpropane sulfonic acid), 1 mM EDTA (ethylenediaminetetraacetic acid), 0.04% Brij-35, 5% glycerol, 0.1% 2-mercaptoethanol, 1 mg/mL BSA (bovine serum albumin) and added to the reaction system, and the reaction system contained the embodiment compounds, 8 mM MOPS pH 7.0, 0.2 mM EDTA, 200 sM polypeptide substrate ([…], SEQ ID NO: 1), 10 mM magnesium acetate and a certain concentration of [γ-33P]-ATP (the strength was about 500 cpm/pmol). A mixture solution of Mg2′ and ATP (adenosine triphosphate) was added to initiate the reaction and the reaction solution was incubated at room temperature for 40 min. 0.5% Phosphate buffer was added to terminate the reaction. 10 μL of the reaction solution was filtered four times on a continuous filter P30, washed three times with 0.425 phosphate buffer, and once with methanol, each wash for 4 min. The value was read with scintillation counting method after drying.
T1 sequence (O14757 whole entry): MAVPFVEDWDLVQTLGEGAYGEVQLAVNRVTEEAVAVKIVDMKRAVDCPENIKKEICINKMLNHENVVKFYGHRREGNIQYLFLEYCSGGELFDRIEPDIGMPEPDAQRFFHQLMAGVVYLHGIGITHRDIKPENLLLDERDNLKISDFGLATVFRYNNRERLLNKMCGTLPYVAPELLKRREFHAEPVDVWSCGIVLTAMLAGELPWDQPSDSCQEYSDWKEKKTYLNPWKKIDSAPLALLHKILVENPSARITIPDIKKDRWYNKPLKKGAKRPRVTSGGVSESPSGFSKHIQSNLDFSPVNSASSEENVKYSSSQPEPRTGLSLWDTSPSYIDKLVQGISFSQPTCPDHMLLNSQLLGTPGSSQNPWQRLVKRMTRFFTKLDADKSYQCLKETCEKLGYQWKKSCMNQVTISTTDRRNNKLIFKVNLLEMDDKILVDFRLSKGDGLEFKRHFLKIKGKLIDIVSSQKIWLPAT

Chain of Serine/threonine-protein kinase Chk2 (O96017 whole entry): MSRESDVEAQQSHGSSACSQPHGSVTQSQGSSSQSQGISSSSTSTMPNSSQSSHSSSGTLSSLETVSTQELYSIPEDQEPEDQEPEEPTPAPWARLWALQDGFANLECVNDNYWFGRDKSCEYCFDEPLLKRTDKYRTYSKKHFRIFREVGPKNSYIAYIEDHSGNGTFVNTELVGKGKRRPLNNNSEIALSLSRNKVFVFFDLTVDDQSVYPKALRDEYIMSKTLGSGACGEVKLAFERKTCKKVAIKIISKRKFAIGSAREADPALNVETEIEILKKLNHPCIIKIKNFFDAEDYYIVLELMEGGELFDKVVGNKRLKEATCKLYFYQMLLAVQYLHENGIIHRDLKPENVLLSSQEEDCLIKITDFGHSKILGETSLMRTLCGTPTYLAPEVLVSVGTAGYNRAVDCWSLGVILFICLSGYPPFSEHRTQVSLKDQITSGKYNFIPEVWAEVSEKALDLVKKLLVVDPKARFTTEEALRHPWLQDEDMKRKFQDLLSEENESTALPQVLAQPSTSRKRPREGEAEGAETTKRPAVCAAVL

SMILES: COc1nc(C)ccc1-c1cc(Nc2cnc3c(F)cn(C4CCN(C)CC4)c3n2)n[nH]1
- IC50 [1]: 166 nM

SMILES: COc1nc(C)ccc1-c1cc(Nc2cnc3c(F)cn(C4CCNCC4)c3n2)n[nH]1
- IC50 [1]: 28 nM

SMILES: COc1cccc(F)c1-c1cc(Nc2cnc3c(F)cn(C4CCNCC4)c3n2)n[nH]1
- IC50 [2]: < 1 nM
- IC50 [1]: 2 nM

SMILES: COc1nc(C)ccc1-c1cc(Nc2cnc3ccn(C4CCNCC4)c3n2)n[nH]1
- IC50 [1]: 79 nM

SMILES: COc1nc(C)ccc1-c1cc(Nc2cnc3ccn(C4CCN(C)CC4)c3n2)n[nH]1
- IC50 [1]: 257 nM

SMILES: COc1cccc(F)c1-c1cc(Nc2cnc3ccn(C4CCNCC4)c3n2)n[nH]1
- IC50 [2]: in the range around 1 nM
- IC50 [1]: 13 nM

SMILES: COc1nc(C)ccc1-c1cc(Nc2cnc3ccn(CC4CCNCC4)c3n2)n[nH]1
- IC50 [2]: 5 nM
- IC50 [1]: 1970 nM

SMILES: COc1cccc(F)c1-c1[nH]nc(Nc2cnc3ccn(C4CCNCC4)c3n2)c1F
- IC50 [2]: in the range around 2 nM
- IC50 [1]: 24 nM
